Data on 1 compound can be found in patent publication US20240208935A1, “COMPOSITIONS AND METHODS FOR TREATING NEURODEGENERATIVE DISEASES” (The Regents of the University of California, priority 2021, published 2024).

Common to all, as to type: cell-based, mice
One experiment has as its target T1, α1β2δ GABAARs of PV+INs (Mus musculus, UniProt P22933+P62812+P63137).
T1 construct: the native α1β2δ receptors of PV+INs; from tissue; host or cells: mouse cortical and hippocampal brain slices; tdTomato-labelled PV+ interneurons
Description: Tonic current recordings in fluorescently labeled PV+INs. The note with it: 1 nM, 1-(current in drug/current in control), read-out: fraction inhibited of the tonic current. From the text:
(§1) Mice aged 8-24 weeks of both sexes will be anesthetized with halothane and decapitated according to the UCLA Chancellor's Animal Research Committee protocol. Horizontal 350 μm hippocampal slices are cut on a Leica VT1000S Vibratome in ice-cold N-Methyl-D-Glucamine (NMDG)-based HEPES-buffered cutting solution, containing in mM: NMDG 135, D-glucose 10, MgCl2 4, CaCl20.5, KCl 1, KH2PO4 1.2, HEPES 26, kynurenic acid 3, pH 7.3-7.4, 295-297 mOsm/l, bubbled with 100% O2. […]
(§2) For these experiments mice expressing hChR2(H134R)-tdTomato specifically in PV+Ins will be used. […] Cells will be voltage-clamped at 0 mV where tonic and phasic GABAAR mediated currents can be recorded without interference from excitatory events. The tonic and phasic components of the currents will be determined as published using Gaussian fits to the all-points histograms of 30 s epochs of recordings during the pre-drug period, 5-10 min after the washin of the drug to be tested, and 1-2 min after washing-in 40 μM of the pan-GABAAR blocker gabazine (SR-95531). The magnitude of the tonic and phasic currents willbe determined by subtracting the currents in the presence of gabazine. […]

In experiment [1] the target is T2, fast synaptic α1β2γ2 receptors (Mus musculus, UniProt P22723+P62812+P63137).
T2 construct: from tissue; host or cells: mouse cortical and hippocampal brain slices; tdTomato-labelled PV+ interneurons
T2 sequence (P62812 28-455): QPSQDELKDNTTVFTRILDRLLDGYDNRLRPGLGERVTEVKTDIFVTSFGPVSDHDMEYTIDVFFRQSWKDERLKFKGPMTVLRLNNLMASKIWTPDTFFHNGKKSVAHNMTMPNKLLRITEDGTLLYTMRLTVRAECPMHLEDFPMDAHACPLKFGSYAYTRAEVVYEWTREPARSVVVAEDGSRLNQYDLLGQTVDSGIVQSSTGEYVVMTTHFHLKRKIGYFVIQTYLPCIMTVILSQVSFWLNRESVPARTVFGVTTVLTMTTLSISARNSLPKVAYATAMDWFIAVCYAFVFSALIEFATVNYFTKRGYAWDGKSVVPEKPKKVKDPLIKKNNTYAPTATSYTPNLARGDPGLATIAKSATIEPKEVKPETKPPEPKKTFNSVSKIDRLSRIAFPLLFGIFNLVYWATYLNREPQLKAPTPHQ
T2 sequence (P63137 25-512 limits assumed): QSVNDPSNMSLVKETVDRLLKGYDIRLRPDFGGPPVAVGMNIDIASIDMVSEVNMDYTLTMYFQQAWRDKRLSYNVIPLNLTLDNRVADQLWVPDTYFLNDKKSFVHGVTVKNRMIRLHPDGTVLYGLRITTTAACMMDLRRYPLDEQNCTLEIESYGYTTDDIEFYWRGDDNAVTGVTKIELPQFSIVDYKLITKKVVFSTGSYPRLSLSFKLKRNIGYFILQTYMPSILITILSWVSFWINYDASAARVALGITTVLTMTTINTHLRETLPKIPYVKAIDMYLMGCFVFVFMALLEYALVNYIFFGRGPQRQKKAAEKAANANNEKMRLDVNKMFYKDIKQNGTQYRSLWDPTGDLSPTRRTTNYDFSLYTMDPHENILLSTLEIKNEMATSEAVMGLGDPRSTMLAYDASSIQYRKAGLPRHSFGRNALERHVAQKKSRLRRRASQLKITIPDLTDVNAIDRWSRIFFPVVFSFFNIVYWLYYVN
T2 sequence (P22723 39-474): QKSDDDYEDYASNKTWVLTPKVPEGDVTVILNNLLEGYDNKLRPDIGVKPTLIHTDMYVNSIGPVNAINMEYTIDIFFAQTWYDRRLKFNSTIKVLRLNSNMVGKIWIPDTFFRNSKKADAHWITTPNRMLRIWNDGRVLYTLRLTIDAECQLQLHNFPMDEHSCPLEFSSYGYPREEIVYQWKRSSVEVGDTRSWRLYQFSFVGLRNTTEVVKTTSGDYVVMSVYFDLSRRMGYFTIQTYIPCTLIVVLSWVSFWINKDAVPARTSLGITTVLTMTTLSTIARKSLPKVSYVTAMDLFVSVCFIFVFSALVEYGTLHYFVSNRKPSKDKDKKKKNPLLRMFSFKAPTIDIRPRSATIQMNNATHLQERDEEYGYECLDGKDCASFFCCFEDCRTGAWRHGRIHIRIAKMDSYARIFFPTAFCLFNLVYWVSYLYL
Description: Phasic current recordings in fluorescently labeled PV+INs. The note with it: 1 nM, 1-(current in drug/current in control), read-out: fraction inhibited of the phasic current.
Excerpt: as §1, §2

The subject of experiment [2] is dentate gyrus granule cells (α4β2/3δ). Description: Tonic inhibition in dentate gyrus granule cells (selectivity). The following applies: 1 nM. The source says: In addition to the α1β2δ GABAARs of PV+INs, the following native δ-GABAARs subunit combinations are present in the brain: (α6β2δ on cerebellar granule cells; α4β2/3δ are most prominent in the forebrain where they are found among other neurons on dentate gyrus granule cells. To establish selectivity of the compounds for the α1β2δ GABAARs of PV+INs, the compounds effects in cerebellar granule cells (α6β2δ) and dentate gyrus granule cells (α4β2/3δ) will be compared.
Selectivity measurement will be performed by dividing the blocking fractions of the compounds for tonic inhibition obtained for the PV+IN above by the values determined for cerebellar and dentate gyrus granule cells.

Experiment [3] relates to γ-oscillations in the CA3 region hippocampal slices. Description: In vitro KA-induced γ-oscillations in the CA3 region hippocampal slices. The note with it: 1 nM; 2 min epochs before and after application; 50 nM kainic acid.
Excerpt: as §1
The oscillations can be recorded in the presence of 50 nM kainic acid in horizontally cut hippocampal slices just below the CA3 pyramidal cells layer, and the oscillations recorded in vitro correspond well to those recorded in vivo during spatial reference memory. […] The squared magnitude of the FFT of the oscillations will be analyzed between 30-120 Hz. The area under the FFT curve will be calculated between these two frequencies and compared during a 2 min epoch just before the perfusion of the drug to the last 2 min of a 10 min drug perfusion. The ratios of the areas in-drug/pre-drug will be calculated as in FIG. 1B.
γ-oscillations were recorded in the presence of 50 nM kainic acid in horizontally cut hippocampal slices just below the CA3 pyramidal cells layer. These oscillations recorded in vitro correspond well to those recorded in vivo during spatial reference memory. […]

T1 sequence (P62812 28-455): as the sequence (P62812 28-455) above
T1 sequence (P63137 26-512): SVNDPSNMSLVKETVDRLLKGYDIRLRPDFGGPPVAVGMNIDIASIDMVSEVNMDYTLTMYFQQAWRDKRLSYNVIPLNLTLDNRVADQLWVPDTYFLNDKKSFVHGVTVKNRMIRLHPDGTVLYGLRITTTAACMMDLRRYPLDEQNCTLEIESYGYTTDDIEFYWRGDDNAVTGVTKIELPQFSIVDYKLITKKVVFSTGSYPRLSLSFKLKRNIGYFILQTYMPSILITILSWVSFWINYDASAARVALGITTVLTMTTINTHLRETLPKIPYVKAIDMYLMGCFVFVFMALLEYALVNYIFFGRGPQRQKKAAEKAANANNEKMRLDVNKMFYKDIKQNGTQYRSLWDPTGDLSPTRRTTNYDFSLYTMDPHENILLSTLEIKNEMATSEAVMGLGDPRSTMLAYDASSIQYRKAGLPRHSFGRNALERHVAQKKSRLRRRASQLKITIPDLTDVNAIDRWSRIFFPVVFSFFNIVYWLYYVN
T1 sequence (P22933 25-449): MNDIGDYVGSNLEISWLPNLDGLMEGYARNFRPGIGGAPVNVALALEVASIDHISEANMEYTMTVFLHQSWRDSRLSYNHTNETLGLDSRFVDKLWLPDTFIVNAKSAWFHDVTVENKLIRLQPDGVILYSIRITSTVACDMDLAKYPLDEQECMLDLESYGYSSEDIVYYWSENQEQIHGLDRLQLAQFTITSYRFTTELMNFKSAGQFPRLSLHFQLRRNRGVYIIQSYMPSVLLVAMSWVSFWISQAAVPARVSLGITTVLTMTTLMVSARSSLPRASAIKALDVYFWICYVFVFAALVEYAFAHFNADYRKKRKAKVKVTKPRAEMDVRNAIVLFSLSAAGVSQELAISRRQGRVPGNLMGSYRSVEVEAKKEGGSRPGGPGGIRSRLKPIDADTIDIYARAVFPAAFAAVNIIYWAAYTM

Regarding `On1cc(C2CCNCC2)c(Cc2ccc3ccccc3c2)n1` [DDL-920, 3-(naphthalen-2-ylmethyl)-4-(piperidin-4-yl)-1H-pyrazol-1-ol], the inhibition at 0.001 µM on α1β2δ GABAARs of PV+INs was determined as 79.2%; in experiment [1], 1.1%. Besides, the “blocking fraction for tonic inhibition in dentate granule cells” value in experiment [2] is 0.376. Moreover, in experiment [2] (PV+IN/dentate granule cell), the “selectivity, PV+IN vs dentate granule cell blocking fraction of tonic inhibition” value was found to be 2.11. Further, the “ratio of the drug/control areas under the FFT curve between 30-120 Hz” value in experiment [3] turned out to be 4.26.
